Reference: the supplement of paper PMC10307832

How the values were obtained:
Experiment in all cases: relative viability (nuclei count vs DMSO), 5 days (fraction); higher = more cells survive
[1] = compound: CN(C)C(=N)NC(=N)N [Metformin] + CS(=O)(=O)CCNCc1ccc(-c2ccc3ncnc(Nc4ccc(OCc5cccc(F)c5)c(Cl)c4)c3c2)o1 [Lapatinib] (partner 2 µM)
Procedure, shortened: (§1)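 Five library-drug doses in √10 steps were combined with a fixed anchor-drug dose, or a single drug was given alone, by pin tool to lung cancer cell lines in 1536-well plates the day after seeding. Nuclei were stained and counted after 5 days. Relative viability is the nuclei count in treated wells over that in vehicle wells, taken as the median of duplicate plates.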

[2] = compound: N#CC1(c2ccc(NC(=O)c3cccnc3NCc3ccncc3)cc2)CCCC1 [Apatinib] + Cc1cc(Nc2cc(N3CCN(C)CC3)nc(Sc3ccc(NC(=O)C4CC4)cc3)n2)n[nH]1 [Tozasertib] (partner 0.1 µM)
Procedure, shortened: as §1

[3] = compound: N#CC1(c2ccc(NC(=O)c3cccnc3NCc3ccncc3)cc2)CCCC1 [Apatinib] + Cc1nc(NC(=O)N2CCC[C@H]2C(N)=O)sc1-c1ccnc(C(C)(C)C(F)(F)F)c1 [Alpelisib] (partner 2 µM)
Procedure, shortened: as §1

[4] = compound: N#CC1(c2ccc(NC(=O)c3cccnc3NCc3ccncc3)cc2)CCCC1 [Apatinib] + O=C(c1cc(Cc2n[nH]c(=O)c3ccccc23)ccc1F)N1CCN(C(=O)C2CC2)CC1 [Olaparib] (partner 8 µM)
Procedure, shortened: as §1

| Cell Line | relative viability ([1]; first compound 10 µM) | relative viability ([1]; first compound 31.62 µM) | relative viability ([1]; first compound 100 µM) | relative viability ([1]; first compound 316.23 µM) | relative viability ([1]; first compound 1000 µM) | relative viability ([2]; first compound 0.08 µM) | relative viability ([2]; first compound 0.253 µM) | relative viability ([2]; first compound 0.8 µM) | relative viability ([2]; first compound 2.53 µM) | relative viability ([2]; first compound 8 µM) | relative viability ([3]; first compound 0.08 µM) | relative viability ([3]; first compound 0.253 µM) | relative viability ([3]; first compound 0.8 µM) | relative viability ([3]; first compound 2.53 µM) | relative viability ([3]; first compound 8 µM) | relative viability ([4]; first compound 0.08 µM) | relative viability ([4]; first compound 0.253 µM) | relative viability ([4]; first compound 0.8 µM) | relative viability ([4]; first compound 2.53 µM) | relative viability ([4]; first compound 8 µM) |
| --- | --- | --- | --- | --- | --- | --- | --- | --- | --- | --- | --- | --- | --- | --- | --- | --- | --- | --- | --- | --- |
| NCI-H647 | 1.04 | 1.14 | 0.933 | 1.04 | 1.1 | 0.288 | 0.503 | 0.19 | 0.144 | 0.206 | 1.39 | 1.21 | 1.1 | 0.799 | 0.706 | 0.65 | 0.794 | 0.508 | 0.418 | 0.305 |
| NCI-H1793 | 0.733 | 0.773 | 0.902 | 0.73 | 0.759 | 0.38 | 0.369 | 0.245 | 0.209 | 0.226 | 0.576 | 0.727 | 0.471 | 0.481 | 0.593 | 0.959 | 0.897 | 0.813 | 0.798 | 0.555 |
| NCI-H1437 | 0.868 | 0.887 | 0.619 | 0.712 | 0.808 | 0.453 | 0.461 | 0.393 | 0.333 | 0.281 | 1.03 | 1.11 | 0.911 | 0.912 | 0.644 | 0.61 | 0.663 | 0.57 | 0.574 | 0.496 |
| SW 1573 | 1.1 | 1.09 | 1.09 | 1.03 | 1.18 | 0.165 | 0.196 | 0.193 | 0.185 | 0.183 | 0.829 | 0.917 | 0.757 | 0.761 | 0.595 | 0.586 | 0.506 | 0.463 | 0.325 | 0.357 |
| SW 900 |  |  |  |  |  | 0.504 | 0.54 | 0.442 | 0.323 | 0.2 |  |  |  |  |  | 0.974 | 0.823 | 0.842 | 0.714 | 0.606 |
| LCLC-103H |  |  |  |  |  | 0.443 | 0.491 | 0.429 | 0.42 | 0.357 | 0.971 | 0.87 | 1.02 | 0.918 | 0.911 | 0.753 | 0.713 | 0.745 | 0.712 | 0.753 |
| BEN | 0.976 | 1.12 | 1.15 | 0.925 | 0.583 | 0.551 | 0.601 | 0.492 | 0.452 | 0.42 | 1.04 | 0.92 | 0.983 | 0.862 | 0.727 | 1.35 | 1.24 | 1.13 | 0.987 | 0.774 |
| EKVX | 0.185 | 0.16 | 0.176 | 0.222 | 0.196 | 0.369 | 0.404 | 0.395 | 0.224 | 0.135 | 0.92 | 0.861 | 0.882 | 0.761 | 0.774 | 0.801 | 0.793 | 0.88 | 0.734 | 0.587 |
| IA-LM | 1.13 | 0.944 |  | 0.886 | 1.21 |  |  |  |  |  | 0.793 | 0.673 | 0.665 | 0.558 | 0.337 | 0.765 | 0.766 | 0.769 | 0.607 | 0.396 |
